# Values joined by “and” are separate entries in the source; they are usually repeats but may differ in a detail not shown here. Identical values can stand only once.
# Test system: 377384-186-R-J1-PDC complex spheroid viability
# Test: Anticancer human tumor 377384-186-R-J1-PDC patient-derived pancreatic carcinoma cell line growth inhibition [CLK]
# Settings: for viability, T/C: stronger effect = lower value
# Procedure, shortened: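 Multi-cell-type spheroids combined patient-derived tumor cells with HUVEC endothelial cells and human mesenchymal stem cells. Paired agents were dosed in half-log steps down from about clinical Cmax, or from 10 microM where Cmax was unknown.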
# [1] = curve of first compound, second compound 0.0316 µM
# [2] = curve of first compound, second compound 0.1 µM
# [3] = curve of first compound, second compound 0.316 µM
# [4] = curve of first compound, second compound 1 µM
# [5] = curve of first compound, second compound 3.16 µM
# [6] = curve of first compound, second compound 10 µM
# [7] = second compound 0.0316 µM, first compound 0.000949 µM
# [8] = second compound 0.0316 µM, first compound 0.003 µM
# [9] = second compound 0.0316 µM, first compound 0.00949 µM
# [10] = second compound 0.0316 µM, first compound 0.03 µM
# [11] = second compound 0.0316 µM, first compound 0.0949 µM
# [12] = second compound 0.0316 µM, first compound 0.3 µM
# [13] = second compound 0.1 µM, first compound 0.000949 µM
# [14] = second compound 0.1 µM, first compound 0.003 µM
# [15] = second compound 0.1 µM, first compound 0.00949 µM
# [16] = second compound 0.1 µM, first compound 0.03 µM
# [17] = second compound 0.1 µM, first compound 0.0949 µM
# [18] = second compound 0.1 µM, first compound 0.3 µM
# [19] = second compound 0.316 µM, first compound 0.000949 µM
# [20] = second compound 0.316 µM, first compound 0.003 µM
# [21] = second compound 0.316 µM, first compound 0.00949 µM
# [22] = second compound 0.316 µM, first compound 0.03 µM
# [23] = second compound 0.316 µM, first compound 0.0949 µM
# [24] = second compound 0.316 µM, first compound 0.3 µM
# [25] = second compound 1 µM, first compound 0.000949 µM
# [26] = second compound 1 µM, first compound 0.003 µM
# [27] = second compound 1 µM, first compound 0.00949 µM
# [28] = second compound 1 µM, first compound 0.03 µM
# [29] = second compound 1 µM, first compound 0.0949 µM
# [30] = second compound 1 µM, first compound 0.3 µM
# [31] = second compound 3.16 µM, first compound 0.000949 µM
# [32] = second compound 3.16 µM, first compound 0.003 µM
# [33] = second compound 3.16 µM, first compound 0.00949 µM
# [34] = second compound 3.16 µM, first compound 0.03 µM
# [35] = second compound 3.16 µM, first compound 0.0949 µM
# [36] = second compound 3.16 µM, first compound 0.3 µM
# [37] = second compound 10 µM, first compound 0.000949 µM
# [38] = second compound 10 µM, first compound 0.003 µM
# [39] = second compound 10 µM, first compound 0.00949 µM
# [40] = second compound 10 µM, first compound 0.03 µM
# [41] = second compound 10 µM, first compound 0.0949 µM
# [42] = second compound 10 µM, first compound 0.3 µM
# 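Further: spheroids exposed to agents for 7 days before reading.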
# 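Wherever viability, T/C is given: luminescence signal used as a stand-in for viable cells.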
structure (smiles),measurement,setting,value
C=CC(=O)Nc1cc(Nc2nccc(-c3cn(C)c4ccccc34)n2)c(OC)cc1N(C)CCN(C)C + CNC(=O)c1ccc(Nc2nc(OC3CCCC3)c3c(-c4ccc5nc(C)oc5c4)c[nH]c3n2)c(OC)c1,IC50,[1],> 300 nM
same,IC50,[2],53.1 nM
same,IC50,[3],< 0.949 nM
same,IC50,[4],< 0.949 nM
same,IC50,[5],< 0.949 nM
same,IC50,[6],< 0.949 nM
same,"viability, T/C",[7],91.5%
same,"viability, T/C",[8],109%
same,"viability, T/C",[9],99.2%
same,"viability, T/C",[10],103%
same,"viability, T/C",[11],86.3%
same,"viability, T/C",[12],59%
same,"viability, T/C",[13],64.1%
same,"viability, T/C",[14],63.5%
same,"viability, T/C",[15],55.7%
same,"viability, T/C",[16],59.4%
same,"viability, T/C",[17],42.8%
same,"viability, T/C",[18],29.7%
same,"viability, T/C",[19],20.6%
same,"viability, T/C",[20],23.6%
same,"viability, T/C",[21],20.6%
same,"viability, T/C",[22],17.2%
same,"viability, T/C",[23],17.3%
same,"viability, T/C",[24],17%
same,"viability, T/C",[25],17.7%
same,"viability, T/C",[26],18.1%
same,"viability, T/C",[27],21.8%
same,"viability, T/C",[28],19.2%
same,"viability, T/C",[29],16.7%
same,"viability, T/C",[30],16.7%
same,"viability, T/C",[31],20.1%
same,"viability, T/C",[32],20.9%
same,"viability, T/C",[33],21.1%
same,"viability, T/C",[34],19.5%
same,"viability, T/C",[35],17.9%
same,"viability, T/C",[36],14.8%
same,"viability, T/C",[37],18.9%
same,"viability, T/C",[38],21.2%
same,"viability, T/C",[39],18.1%
same,"viability, T/C",[40],19.4%
same,"viability, T/C",[41],17.6%
same,"viability, T/C",[42],15.3%
CC(=O)O[C@H]1C(=O)[C@@]2(C)[C@H]([C@H](OC(=O)c3ccccc3)[C@]3(O)C[C@H](OC(=O)[C@H](O)[C@@H](NC(=O)c4ccccc4)c4ccccc4)C(C)=C1C3(C)C)[C@]1(OC(C)=O)CO[C@@H]1C[C@@H]2O + CN1CCN(c2cc(C(=O)Nc3cc4cc(-c5cnn(C)c5)ccc4cn3)ccn2)CC1,IC50,[1],< 31.6 nM
same,IC50,[2],< 31.6 nM
same,IC50,[3],< 31.6 nM
same,IC50,[4],< 31.6 nM
same,IC50,[5],< 31.6 nM
same,IC50,[6],< 31.6 nM
same,"viability, T/C","second compound 0.0316 µM, first compound 0.0316 µM",9.18%
same,"viability, T/C","second compound 0.0316 µM, first compound 0.1 µM",9.07%
same,"viability, T/C","second compound 0.0316 µM, first compound 0.316 µM",7.15%
same,"viability, T/C","second compound 0.0316 µM, first compound 1 µM",8.23%
same,"viability, T/C","second compound 0.0316 µM, first compound 3.16 µM",10.1%
same,"viability, T/C","second compound 0.0316 µM, first compound 10 µM",14.8%
same,"viability, T/C","second compound 0.1 µM, first compound 0.0316 µM",7.97%
same,"viability, T/C","second compound 0.1 µM, first compound 0.1 µM",9.15%
same,"viability, T/C","second compound 0.1 µM, first compound 0.316 µM",10.9%
same,"viability, T/C","second compound 0.1 µM, first compound 1 µM",10.7%
same,"viability, T/C","second compound 0.1 µM, first compound 3.16 µM",8.46%
same,"viability, T/C","second compound 0.1 µM, first compound 10 µM",15.1%
same,"viability, T/C","second compound 0.316 µM, first compound 0.0316 µM",9.05%
same,"viability, T/C","second compound 0.316 µM, first compound 0.1 µM",9.91%
same,"viability, T/C","second compound 0.316 µM, first compound 0.316 µM",10.6%
same,"viability, T/C","second compound 0.316 µM, first compound 1 µM",11.4%
same,"viability, T/C","second compound 0.316 µM, first compound 3.16 µM",15.1%
same,"viability, T/C","second compound 0.316 µM, first compound 10 µM",14.1%
same,"viability, T/C","second compound 1 µM, first compound 0.0316 µM",0.76%
same,"viability, T/C","second compound 1 µM, first compound 0.1 µM",0.53%
same,"viability, T/C","second compound 1 µM, first compound 0.316 µM",1.35%
same,"viability, T/C","second compound 1 µM, first compound 1 µM",0.93%
same,"viability, T/C","second compound 1 µM, first compound 3.16 µM",0.78%
same,"viability, T/C","second compound 1 µM, first compound 10 µM",1.13%
same,"viability, T/C","second compound 3.16 µM, first compound 0.0316 µM",0.39%
same,"viability, T/C","second compound 3.16 µM, first compound 0.1 µM",0.51%
same,"viability, T/C","second compound 3.16 µM, first compound 0.316 µM",0.58%
same,"viability, T/C","second compound 3.16 µM, first compound 1 µM",0.7%
same,"viability, T/C","second compound 3.16 µM, first compound 3.16 µM",1.32%
same,"viability, T/C","second compound 3.16 µM, first compound 10 µM",2.27%
same,"viability, T/C","second compound 10 µM, first compound 0.0316 µM",0.34%
same,"viability, T/C","second compound 10 µM, first compound 0.1 µM",0.28%
same,"viability, T/C","second compound 10 µM, first compound 0.316 µM",0.49%
same,"viability, T/C","second compound 10 µM, first compound 1 µM",0.48%
same,"viability, T/C","second compound 10 µM, first compound 3.16 µM",0.4%
same,"viability, T/C","second compound 10 µM, first compound 10 µM",0.37%
CC(C)CC(NC(=O)C(Cc1ccccc1)NC(=O)c1cnccn1)B(O)O (configuration not stated) + CNC(=O)c1ccc(Nc2nc(OC3CCCC3)c3c(-c4ccc5nc(C)oc5c4)c[nH]c3n2)c(OC)c1,IC50,[1],1.41 nM
same,IC50,[2],< 0.949 nM
same,IC50,[3],< 0.949 nM
same,IC50,[4],< 0.949 nM
same,IC50,[5],< 0.949 nM
same,IC50,[6],< 0.949 nM
same,"viability, T/C",[7],75.2%
same,"viability, T/C",[8],2.16%
same,"viability, T/C",[9],0.37%
same,"viability, T/C",[10],0.17%
same,"viability, T/C",[11],0.17%
same,"viability, T/C",[12],0.13%
same,"viability, T/C",[13],44%
same,"viability, T/C",[14],1.4%
same,"viability, T/C",[15],0.25%
same,"viability, T/C",[16],0.15%
same,"viability, T/C",[17],0.13%
same,"viability, T/C",[18],0.15%
same,"viability, T/C",[19],21.4%
same,"viability, T/C",[20],0.99%
same,"viability, T/C",[21],0.18%
same,"viability, T/C",[22],0.14%
same,"viability, T/C",[23],0.15%
same,"viability, T/C",[24],1.69%
same,"viability, T/C",[25],17.2%
same,"viability, T/C",[26],0.98%
same,"viability, T/C",[27],0.28%
same,"viability, T/C",[28],0.24%
same,"viability, T/C",[29],0.51%
same,"viability, T/C",[30],0.35%
same,"viability, T/C",[31],14.8%
same,"viability, T/C",[32],0.96%
same,"viability, T/C",[33],0.36%
same,"viability, T/C",[34],0.23%
same,"viability, T/C",[35],0.31%
same,"viability, T/C",[36],0.21%
same,"viability, T/C",[37],14.3%
same,"viability, T/C",[38],0.81%
same,"viability, T/C",[39],0.71%
same,"viability, T/C",[40],0.24%
same,"viability, T/C",[41],0.62%
same,"viability, T/C",[42],0.3%
COC1C=CCC(C)C(C)S(=O)(=O)NC(=O)c2ccc3c(c2)N(CC2CCC21)CC1(CCCc2cc(Cl)ccc21)CO3 (configuration not stated),"viability, T/C",compound 0.0316 µM,88.4% and 110%
same,"viability, T/C",compound 0.1 µM,101% and 94.2%
same,"viability, T/C",compound 0.316 µM,82% and 79%
same,"viability, T/C",compound 1 µM,96.1% and 69.6%
same,"viability, T/C",compound 3.16 µM,65.8% and 61.7%
same,"viability, T/C",compound 10 µM,11.2% and 20.1%
same,IC50,curve of compound,4410 nM and 3370 nM
COc1cccc2c1C(=O)c1c(O)c3c(c(O)c1C2=O)CC(O)(C(=O)CO)CC3OC1CC(N)C(O)C(C)O1 (configuration not stated),"viability, T/C",compound 0.0316 µM,12.5% and 9.59%
same,"viability, T/C",compound 0.1 µM,7.59% and 5.12%
same,"viability, T/C",compound 0.316 µM,1.88% and 1.98%
same,"viability, T/C",compound 1 µM,0.76% and 0.47%
same,"viability, T/C",compound 3.16 µM,3.8% and 3.34%
same,"viability, T/C",compound 10 µM,8.38% and 5.34%
same,IC50,curve of compound,< 31.6 nM
NC(=O)C(=Cn1cnc(-c2cc(C(F)(F)F)cc(C(F)(F)F)c2)n1)c1cncnc1,"viability, T/C",compound 0.00949 µM,78.2% and 92.5%
same,"viability, T/C",compound 0.03 µM,70.7% and 66.7%
same,"viability, T/C",compound 0.0949 µM,41.7% and 36.3%
same,"viability, T/C",compound 0.3 µM,27% and 18.9%
same,"viability, T/C",compound 0.949 µM,7.58% and 5.02%
same,"viability, T/C",compound 3 µM,3.05% and 2.18%
same,IC50,curve of compound,76 nM and 57.4 nM
